Assay results taken from PubChem BioAssay (NCI).
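Assay format: 96-well plates, 48-hour exposure. GI50 = concentration required for 50% inhibition of growth. At the TGI there is no net growth.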

Columns and labels:
Experiment in all cases: NCI tumour cell line growth inhibition, 48 h
[1] = system: DU-145 prostate
[2] = system: SF-539 CNS
[3] = system: HL-60(TB) leukemia
[4] = system: NCI-H522 lung
[5] = system: SW-620 colon
[6] = system: EKVX NSCLC
[7] = system: A549 NSCLC
[8] = system: HOP-62 NSCLC
[9] = system: SNB-75 CNS
[10] = system: ACHN renal
[11] = system: SF-268 CNS
[12] = system: HCC-2998 colon
[13] = system: SN12C renal
[14] = system: XF 498 CNS
[15] = system: P388/ADR leukemia

Structure (SMILES)	TGI [1]	TGI [2]	TGI [3]	TGI [4]	TGI [5]	TGI [6]	TGI [7]	TGI [8]	TGI [9]	TGI [10]	TGI [11]	GI50 [1]	GI50 [3]	GI50 [4]	GI50 [10]	GI50 [12]	TGI [12]	TGI [13]	TGI [14]	TGI [15]
CS(C)(=O)=Nn1c(=O)n2n(c1=O)[C@H]1CC[C@@H]2C1	> 100 µM	> 100 µM	> 100 µM	> 100 µM	> 100 µM	> 100 µM	> 100 µM	> 100 µM	> 100 µM	> 100 µM	> 100 µM	–	–	–	–	–	–	–	–	–
C=CCn1c(C)nc2cc(Nc3nc(N4CCCC4)nc4nc[nH]c34)ccc21	> 100 µM	–	> 100 µM	> 100 µM	–	–	–	–	–	> 100 µM	–	> 100 µM	> 100 µM	> 100 µM	> 100 µM	> 100 µM	> 100 µM	–	–	–
Cc1ccnn1CCc1ccc(Cl)cc1Cl	> 100 µM	49.6 µM	42.4 µM	–	> 100 µM	20.7 µM	> 100 µM	32.5 µM	> 100 µM	> 100 µM	> 100 µM	–	–	–	–	–	–	> 100 µM	–	–
O=C1Sc2sc(=S)sc2SC1c1ccccc1 (stereo not given)	–	> 100 µM	> 31.6 µM	19.5 µM	39.3 µM	> 100 µM	> 100 µM	> 100 µM	> 81.4 µM	–	> 100 µM	–	–	–	–	–	> 100 µM	> 100 µM	> 79.1 µM	> 67.7 µM
Cc1c2cnccc2c(C)c2c1c1ccccc1n2CCCCCCCl	–	> 50 µM	40.6 µM	> 50 µM	> 50 µM	> 50 µM	> 50 µM	> 50 µM	> 31.6 µM	–	> 50 µM	–	–	–	–	–	> 50 µM	> 50 µM	> 50 µM	> 50 µM
CC1=CC2=C(C=O)C(=O)[C@](C)(O)[C@@H](O)C2=CO1	–	97.5 µM	–	38.5 µM	> 77.6 µM	> 100 µM	> 90.8 µM	69 µM	> 100 µM	–	> 69.4 µM	–	–	–	–	–	> 61.5 µM	> 100 µM	> 100 µM	33.8 µM
